# Data from patent US8623857B2, “N-phenyl imidazole carboxamide inhibitors of 3-phosphoinositide-dependent protein kinase-1” (Merck Sharp & Dohme Corp., priority 2010, dated 2014).
# Molecular target: T1, recombinant human PDK1 (Homo sapiens, UniProt O15530)
# T1 construct: containing amino acids 51-556 of the human PDK1 enzyme; made in house; host or cells: Sf9 insect cells
# T1 sequence (O15530 51-556): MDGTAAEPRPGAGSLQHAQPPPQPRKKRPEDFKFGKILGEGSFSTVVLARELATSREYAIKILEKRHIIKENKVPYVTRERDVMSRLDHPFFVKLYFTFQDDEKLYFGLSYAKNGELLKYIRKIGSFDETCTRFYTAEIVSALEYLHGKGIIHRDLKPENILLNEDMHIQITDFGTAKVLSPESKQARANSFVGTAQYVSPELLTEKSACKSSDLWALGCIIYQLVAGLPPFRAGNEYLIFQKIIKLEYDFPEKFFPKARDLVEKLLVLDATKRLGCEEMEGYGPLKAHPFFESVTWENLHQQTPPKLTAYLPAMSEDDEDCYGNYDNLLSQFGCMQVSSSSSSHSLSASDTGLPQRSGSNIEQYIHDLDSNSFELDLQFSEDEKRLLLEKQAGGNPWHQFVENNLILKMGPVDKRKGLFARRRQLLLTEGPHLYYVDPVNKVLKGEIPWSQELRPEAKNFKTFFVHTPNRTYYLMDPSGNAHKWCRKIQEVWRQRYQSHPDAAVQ
# Test: PDK1 IMAP fluorescence polarization assay (inhibition of peptide substrate phosphorylation)
# Type: biochemical
# [1] = Table 6, 10 nM PDK1 enzyme, 100 nM peptide substrate, 100 nM PIFtide, 2.5 uM ATP, 1.5 hours
"IC50 (Table 10, compounds 97-132) [nM]",IC50 [1] [nM],SMILES
1 to 50,,"CNc1nc(-c2c[nH]c(C(=O)Nc3ccccc3N3CCNCC3)n2)cc(N2CC(C(=O)NC3CCCCC3)CCC2C)n1 (racemic) [Compound 102, N-cyclohexyl-6-methyl-1-(2-(methylamino)-6-(2-(2-(piperazin-1-yl)phenylcarbamoyl)-1H-imidazol-4-yl)pyrimidin-4-yl)piperidine-3-carboxamide]"
51 to 250,,"CNc1nc(-c2c[nH]c(C(=O)Nc3ccccc3N3CCNCC3)n2)cc(N2C[C@@H](C(=O)NC3CCCCC3)CC[C@@H]2C)n1 (racemic) [Compound 104, N-cyclohexyl-6-methyl-1-(2-(methylamino)-6-(2-(2-(piperazin-1-yl)phenylcarbamoyl)-1H-imidazol-4-yl)pyrimidin-4-yl)piperidine-3-carboxamide]"
1 to 50,,"CNc1nc(-c2c[nH]c(C(=O)Nc3ccccc3OC3CCNCC3)n2)cc(N2CC(C(=O)NC3CCCCC3)CCC2C)n1 (racemic) [Compound 108, N-cyclohexyl-6-methyl-1-(2-(methylamino)-6-(2-(2-(piperidin-4-yloxy)phenylcarbamoyl)-1H-imidazol-4-yl)pyrimidin-4-yl)piperidine-3-carboxamide]"
1 to 50,,"CNc1nc(-c2c[nH]c(C(=O)Nc3cccc(F)c3N3CCOCC3)n2)cc(N2CC(C(=O)NC3CCCCC3)CCC2C)n1 (racemic) [Compound 109, N-cyclohexyl-1-(6-(2-(3-fluoro-2-morpholinophenylcarbamoyl)-1H-imidazol-4-yl)-2-(methylamino)pyrimidin-4-yl)-6-methylpiperidine-3-carboxamide]"
1 to 50,,"CNc1nc(-c2c[nH]c(C(=O)Nc3cccc(F)c3N3CCO[C@@H](CN)C3)n2)cc(N2CC(C(=O)NC3CCCCC3)CCC2C)n1 (mixture of isomers) [Compound 110, 1-(6-(2-(2-((S)-2-(aminomethyl)morpholino)-3-fluorophenylcarbamoyl)-1H-imidazol-4-yl)-2-(methylamino)pyrimidin-4-yl)-N-cyclohexyl-6-methylpiperidine-3-carboxamide]"
1 to 50,,"CNc1nc(-c2c[nH]c(C(=O)Nc3cccc(F)c3N3CCO[C@H](CN)C3)n2)cc(N2CC(C(=O)NC3CCCCC3)CCC2C)n1 (mixture of isomers) [Compound 111, 1-(6-(2-(2-((R)-2-(aminomethyl)morpholino)-3-fluorophenylcarbamoyl)-1H-imidazol-4-yl)-2-(methylamino)pyrimidin-4-yl)-N-cyclohexyl-6-methylpiperidine-3-carboxamide]"
1 to 50,,"CC1CCC(C(=O)NC2CCCCC2)CN1c1cc(-c2c[nH]c(C(=O)Nc3cc(N)ccc3N3CCC4(CCCNC4)CC3)n2)nc(N)n1 (racemic) [Compound 112, 1-(2-amino-6-(2-(5-amino-2-(2,9-diazaspiro[5.5]undecan-9-yl)phenylcarbamoyl)-1H-imidazol-4-yl)pyrimidin-4-yl)-N-cyclohexyl-6-methylpiperidine-3-carboxamide]"
1 to 50,,CNc1nc(-c2c[nH]c(C(=O)Nc3ccccc3N3CCC4(CC3)OCCO4)n2)cc(N2CC(C(=O)NC3CCCCC3)CCC2C)n1 (racemic) [Compound 113]
1 to 50,,"CNc1nc(-c2c[nH]c(C(=O)Nc3cccc(F)c3N3CCC4(CC3)CNC4)n2)cc(N2CC(C(=O)NC3CCCCC3)CCC2C)n1 (racemic) [Compound 118, N-cyclohexyl-1-(6-(2-(3-fluoro-2-(2,7-diazaspiro[3.5]nonan-7-yl)phenylcarbamoyl)-1H-imidazol-4-yl)-2-(methylamino)pyrimidin-4-yl)-6-methylpiperidine-3-carboxamide]"
1 to 50,,"CNc1nc(-c2c[nH]c(C(=O)Nc3cccc(F)c3N3CCC4(CCNC4)CC3)n2)cc(N2CC(C(=O)NC3CCCCC3)CCC2C)n1 (racemic) [Compound 119, N-cyclohexyl-1-(6-(2-(3-fluoro-2-(2,8-diazaspiro[4.5]decan-8-yl)phenylcarbamoyl)-1H-imidazol-4-yl)-2-(methylamino)pyrimidin-4-yl)-6-methylpiperidine-3-carboxamide]"
1 to 50,,"CNc1nc(-c2c[nH]c(C(=O)Nc3cccc(F)c3N3CCOC[C@H]3C)n2)cc(N2CC(C(=O)NC3CCCCC3)CCC2C)n1 (mixture of isomers) [Compound 122, N-cyclohexyl-1-(6-(2-(3-fluoro-2-((R)-3-methylmorpholino)phenylcarbamoyl)-1H-imidazol-4-yl)-2-(methylamino)pyrimidin-4-yl)-6-methylpiperidine-3-carboxamide]"
,51 to 250,"Nc1ccc(N2CCC[C@@H](N)C2)c(NC(=O)c2ncc[nH]2)c1 [Compound 1, N-[5-amino-2-(3(R)-amino-1-piperidinyl)phenyl]-1H-imidazole-2-carboxamide]"
,1000 to 5000,"CNC1(C(N)=O)CCN(c2ccc(N)cc2NC(=O)c2ncc[nH]2)CC1 [Compound 2, 1-[4-amino-2-[(1H-imidazol-2-ylcarbonyl)amino]phenyl]-4-(methylamino)-4-piperidinecarboxamide]"
,251 to 1000,"NCC1CCN(c2ccc(N)cc2NC(=O)c2ncc[nH]2)CC1 [Compound 3, N-[5-amino-2-[4-(aminomethyl)-1-piperidinyl]phenyl]-1H-imidazole-2-carboxamide]"
,51 to 250,"N[C@@H]1CCCN(c2c(F)cccc2NC(=O)c2nc(-c3cnn(Cc4ccccc4)c3)c[nH]2)C1 [Compound 4, N-[2-(3(R)-amino-1-piperidinyl)-3-fluorophenyl]-4-[1-(phenylmethyl)-1H-pyrazol-4-yl]-1H-imidazole-2-carboxamide]"
,51 to 250,"N[C@@H]1CCCN(c2c(F)cccc2NC(=O)c2nc(-c3cnn(Cc4cccs4)c3)c[nH]2)C1 [Compound 5, N-[2-(3(R)-amino-1-piperidinyl)-3-fluorophenyl]-4-[1-(2-thienylmethyl)-1H-pyrazol-4-yl]-1H-imidazole-2-carboxamide]"
,1000 to 5000,"CN(C)CCOc1ccccc1NC(=O)c1nc(-c2cnn(Cc3ccccc3)c2)c[nH]1 [Compound 6, N-[2-[2-(dimethylamino)ethoxy]phenyl]-4-[1-(phenylmethyl)-1H-pyrazol-4-yl]-1H-imidazole-2-carboxamide]"
,1000 to 5000,"N[C@@H]1CCCN(c2c(F)cccc2NC(=O)c2nc(-c3cnn(Cc4ccccn4)c3)c[nH]2)C1 [Compound 7, N-[2-(3(R)-amino-1-piperidinyl)-3-fluorophenyl]-4-[1-(2-pyridinylmethyl)-1H-pyrazol-4-yl]-1H-imidazole-2-carboxamide]"
,1 to 50,"Cc1cc(-c2c[nH]c(C(=O)Nc3cccc(F)c3N3CCC[C@@H](N)C3)n2)ccn1 [Compound 8, N-[2-(3(R)-amino-1-piperidinyl)-3-fluorophenyl]-4-(2-methyl-4-pyridinyl)-1H-imidazole-2-carboxamide]"
,1000 to 5000,"N[C@@H]1CCCN(c2c(F)cccc2NC(=O)c2nc(-c3cncc(C(F)(F)F)c3)c[nH]2)C1 [Compound 9, N-[2-(3(R)-amino-1-piperidinyl)-3-fluorophenyl]-4-[5-(trifluoromethyl)-3-pyridinyl]-1H-imidazole-2-carboxamide]"
,251 to 1000,"N[C@@H]1CCCN(c2c(F)cccc2NC(=O)c2nc(-c3ccncc3)c[nH]2)C1 [Compound 10, N-[2-(3(R)-amino-1-piperidinyl)-3-fluorophenyl]-4-(4-pyridinyl)-1H-imidazole-2-carboxamide]"
,51 to 250,"N[C@@H]1CCCN(c2c(F)cccc2NC(=O)c2nc(-c3cn[nH]c3)c[nH]2)C1 [Compound 11, N-[2-(3(R)-amino-1-piperidinyl)-3-fluorophenyl]-4-(1H-pyrazol-4-yl)-1H-imidazole-2-carboxamide]"
,51 to 250,"N[C@@H]1CCCN(c2c(F)cccc2NC(=O)c2nc(Br)c[nH]2)C1 [Compound 12, N-[2-(3(R)-amino-1-piperidinyl)-3-fluorophenyl]-4-bromo-1H-imidazole-2-carboxamide]"
,51 to 250,"N[C@@H]1CCCN(c2c(F)cccc2NC(=O)c2nc(-c3cnn(Cc4cccnc4)c3)c[nH]2)C1 [Compound 13, N-[2-(3(R)-amino-1-piperidinyl)-3-fluorophenyl]-4-[1-(3-pyridinylmethyl)-1H-pyrazol-4-yl]-1H-imidazole-2-carboxamide]"
,251 to 1000,"Cn1cc(-c2c[nH]c(C(=O)Nc3cccc(F)c3N3CCC[C@@H](N)C3)n2)cn1 [Compound 14, N-[2-(3(R)-amino-1-piperidinyl)-3-fluorophenyl]-4-(1-methyl-1H-pyrazol-4-yl)-1H-imidazole-2-carboxamide]"
,1000 to 5000,"NC(=O)N[C@@H]1CCCN(c2c(F)cccc2NC(=O)c2nc(Br)c[nH]2)C1 [Compound 15, N-[2-[3(R)-[(aminocarbonyl)amino]-1-piperidinyl]-3-fluorophenyl]-4-bromo-1H-imidazole-2-carboxamide]"
,51 to 250,"Nc1ccc(N2CCC[C@@H](N)C2)c(NC(=O)c2nc(Br)c[nH]2)c1 [Compound 16, N-[5-amino-2-(3(R)-amino-1-piperidinyl)phenyl]-4-bromo-1H-imidazole-2-carboxamide]"

SMILES,"IC50 (Table 10, compounds 97-132) [nM]",IC50 [1] [nM]
"CNc1nc(-c2c[nH]c(C(=O)Nc3cccc(F)c3N3CCC[C@@H](N)C3)n2)cc(N2CC(C(=O)NC3CCCCC3)CCC2C)n1 (mixture of isomers) [Compound 114, 1-(6-(2-(2-((R)-3-aminopiperidin-1-yl)-3-fluorophenylcarbamoyl)-1H-imidazol-4-yl)-2-(methylamino)pyrimidin-4-yl)-N-cyclohexyl-6-methylpiperidine-3-carboxamide]",1 to 50,
